Assay results published in the supplement of paper PMC6965134.
± gives the standard deviation of the averaged measurements.

Assay: TIMS collisional cross section (CCS, N2) of the lipid ion; higher = larger ion cross section
Conditions: ionization mode: positive, one isomer drawn

| Structure (SMILES) | TIMS collisional cross section (sample type: Liver) | TIMS collisional cross section (sample type: plasma) | TIMS collisional cross section (sample type: HeLa) |
| --- | --- | --- | --- |
| CCCCCCCCCCCCCCCC(=O)OC[C@H](COP(=O)([O-])OCC[N+](C)(C)C)OC(=O)CCCC=O [Oxidized PC 16:0_5:0@] (ion (formula + adduct): [C29H56NO9P+H] 1+) | 245.3 Å² | 245.55 ± 0.35 Å² | – |
| CCCCCCCCCCCCCCCC(=O)OC[C@H](COP(=O)([O-])OCC[N+](C)(C)C)OC(=O)CCCCCCCC=O [Oxidized PC 16:0_9:0@] (ion (formula + adduct): [C33H64NO9P+H] 1+) | – | 257 ± 0.14 Å² | 257.85 ± 1.6 Å² |
| CCCCCCCCCCCCCCCCCC(=O)O[C@H](COC(=O)CCCCCCC)COP(=O)([O-])OCC[N+](C)(C)C [PC 8:0_18:0@] (ion (formula + adduct): [C34H68NO8P+H] 1+) | 265.4 Å² | – | – |
| CCCCCCCCCCCCCC(=O)O[C@H](COC(=O)CCCCCCCCCCC)COP(=O)([O-])OCC[N+](C)(C)C [PC 12:0@_14:0] (ion (formula + adduct): [C34H68NO8P+H] 1+) | – | – | 266.9 Å² |
| CCCCCCCCCCCCCCC(=O)O[C@H](COC(=O)CCCCCCCCCCC)COP(=O)([O-])OCC[N+](C)(C)C [PC 12:0_15:0@] (ion (formula + adduct): [C35H70NO8P+H] 1+) | – | 269.3 Å² | – |
| CCCCCCCCCCCCCCC(=O)O[C@H](COC(=O)CCCCCCCCCCCCC)COP(=O)([O-])OCC[N+](C)(C)C [PC 14:0@_15:0] (ion (formula + adduct): [C37H74NO8P+H] 1+) | – | – | 276.1 Å² |
| CCCCCCCCCCCCCCCC(=O)O[C@H](COC(=O)CCCCCCCCCCCCC)COP(=O)([O-])OCC[N+](C)(C)C [PC 14:0@_16:0] (ion (formula + adduct): [C38H76NO8P+H] 1+) | – | – | 279.2 Å² |
| CCCCCCCCCCCCCCC(=O)O[C@H](COC(=O)CCCCCCCCCCCCC)COP(=O)([O-])OCC[N+](C)(C)C [PC 14:0_15:0] (ion (formula + adduct): [C37H74NO8P+H] 1+) | – | – | 276.3 Å² |
| CCCCCCCCCCCCCCCC(=O)O[C@H](COC(=O)CCCCCCCCCCCCC)COP(=O)([O-])OCC[N+](C)(C)C [PC 14:0_16:0] (ion (formula + adduct): [C38H76NO8P+H] 1+) | – | – | 280.6 Å² |
| CCCCCC/C=C\CCCCCCCC(=O)O[C@H](COC(=O)CCCCCCCCCCCCC)COP(=O)([O-])OCC[N+](C)(C)C [PC 14:0_16:1@] (ion (formula + adduct): [C38H74NO8P+H] 1+) | – | – | 276.5 Å² |
| CCCCCC/C=C\CCCCCCCC(=O)O[C@H](COC(=O)CCCCCCCCCCCCC)COP(=O)([O-])OCC[N+](C)(C)C [PC 14:0_16:1] (ion (formula + adduct): [C38H74NO8P+H] 1+) | – | – | 275.8 Å² |
| CCCC/C=C\CCCCCCCC(=O)OC[C@H](COP(=O)([O-])OCC[N+](C)(C)C)OC(=O)CCCCCCCCCCCCCCCCC [PC 14:1@_18:0] (ion (formula + adduct): [C40H78NO8P+H] 1+) | – | – | 282.3 Å² |
| CCCCCCCCCCCCCCCC(=O)O[C@H](COC(=O)CCCCCCCCCCCCCC)COP(=O)([O-])OCC[N+](C)(C)C [PC 15:0_16:0] (ion (formula + adduct): [C39H78NO8P+H] 1+) | – | – | 282.1 Å² |
| CCCCCC/C=C\CCCCCCCC(=O)O[C@H](COC(=O)CCCCCCCCCCCCCC)COP(=O)([O-])OCC[N+](C)(C)C [PC 15:0_16:1] (ion (formula + adduct): [C39H76NO8P+H] 1+) | – | – | 278.9 Å² |
| CCCCCC/C=C\CCCCCCCC(=O)O[C@H](COC(=O)CCCCCCCCCCCCCCC)COP(=O)([O-])OCC[N+](C)(C)C [PC 16:0@_16:1] (ion (formula + adduct): [C40H78NO8P+H] 1+) | – | 282.2 Å² | 281.7 Å² |
| CCCCCCCC/C=C\CCCCCCCC(=O)O[C@H](COC(=O)CCCCCCCCCCCCCCC)COP(=O)([O-])OCC[N+](C)(C)C [PC 16:0@_18:1] (ion (formula + adduct): [C42H82NO8P+H] 1+) | 287.6 Å² | 288.2 Å² | 289.15 ± 0.49 Å² |
| CCCCC/C=C\C=C\CCCCCCCCC(=O)O[C@H](COC(=O)CCCCCCCCCCCCCCC)COP(=O)([O-])OCC[N+](C)(C)C [PC 16:0@_18:2] (ion (formula + adduct): [C42H80NO8P+H] 1+) | 283.5 Å² | 284.9 Å² | – |

Now from value to compound:

| TIMS collisional cross section (sample type: Liver) | TIMS collisional cross section (sample type: plasma) | TIMS collisional cross section (sample type: HeLa) | Structure (SMILES) |
| --- | --- | --- | --- |
| 290.3 Å² | – | – | CCCCC/C=C\C[C@H](O)/C=C/C=C\C/C=C\CCCC(=O)O[C@H](COC(=O)CCCCCCCCCCCCCCC)COP(=O)([O-])OCC[N+](C)(C)C [Oxidized PC 16:0_20:4@] (ion (formula + adduct): [C44H80NO9P+H] 1+) |
| – | 297.15 ± 0.92 Å² | – | CCCCC/C=C\C[C@H](O)/C=C/C=C\C/C=C\CCCC(=O)O[C@H](COC(=O)CCCCCCCCCCCCCCCCC)COP(=O)([O-])OCC[N+](C)(C)C [Oxidized PC 18:0@_20:4] (ion (formula + adduct): [C46H84NO9P+H] 1+) |
| – | 296.7 Å² | – | CCCCC/C=C\C[C@H](O)/C=C/C=C\C/C=C\CCCC(=O)O[C@H](COC(=O)CCCCCCCCCCCCCCCCC)COP(=O)([O-])OCC[N+](C)(C)C [Oxidized PC 18:0_20:4] (ion (formula + adduct): [C46H84NO9P+H] 1+) |
| 277.5 Å² | – | – | CC/C=C\C/C=C\C/C=C\CCCCCCCC(=O)O[C@H](COC(=O)CCCCCCCCCCCCC)COP(=O)([O-])OCC[N+](C)(C)C [PC 14:0@_18:3] (ion (formula + adduct): [C40H74NO8P+H] 1+) |
| – | – | 278.8 Å² | CC/C=C\C/C=C\C/C=C\C/C=C\CCCCC(=O)O[C@H](COC(=O)CCCCCCCCCCCCC)COP(=O)([O-])OCC[N+](C)(C)C [PC 14:0@_18:4] (ion (formula + adduct): [C40H72NO8P+H] 1+) |
| – | 282 Å² | – | CCCCC/C=C\C/C=C\C/C=C\C/C=C\CCCC(=O)O[C@H](COC(=O)CCCCCCCCCCCCC)COP(=O)([O-])OCC[N+](C)(C)C [PC 14:0@_20:4] (ion (formula + adduct): [C42H76NO8P+H] 1+) |
| – | 284.8 Å² | – | CC/C=C\C/C=C\C/C=C\C/C=C\C/C=C\C/C=C\CCC(=O)O[C@H](COC(=O)CCCCCCCCCCCCC)COP(=O)([O-])OCC[N+](C)(C)C [PC 14:0@_22:6] (ion (formula + adduct): [C44H76NO8P+H] 1+) |
| – | 278.7 Å² | 279.2 Å² | CCC/C=C\C/C=C\CCCCCCCCCC(=O)O[C@H](COC(=O)CCCCCCCCCCCCC)COP(=O)([O-])OCC[N+](C)(C)C [PC 14:0_18:2] (ion (formula + adduct): [C40H76NO8P+H] 1+) |
| – | – | 285.3 Å² | CC/C=C\C/C=C\C/C=C\C/C=C\C/C=C\C/C=C\CCC(=O)O[C@H](COC(=O)CCCCCCCCCCCCC)COP(=O)([O-])OCC[N+](C)(C)C [PC 14:0_22:6@] (ion (formula + adduct): [C44H76NO8P+H] 1+) |
| – | – | 272.4 Å² | CCCC/C=C\CCCCCCCC(=O)OC[C@H](COP(=O)([O-])OCC[N+](C)(C)C)OC(=O)CCCCCCC/C=C\CCCCCC [PC 14:1@_16:1] (ion (formula + adduct): [C38H72NO8P+H] 1+) |
| 281 Å² | 280.9 Å² | – | CCCCC/C=C\C/C=C\CCCCCCCC(=O)O[C@H](COC(=O)CCCCCCCCCCCCCC)COP(=O)([O-])OCC[N+](C)(C)C [PC 15:0@_18:2] (ion (formula + adduct): [C41H78NO8P+H] 1+) |
| – | – | 279.7 Å² | CCCCC/C=C\C/C=C\C/C=C\CCCCC(=O)O[C@H](COC(=O)CCCCCCCCCCCCCC)COP(=O)([O-])OCC[N+](C)(C)C [PC 15:0@_18:3] (ion (formula + adduct): [C41H76NO8P+H] 1+) |
| – | – | 282.3 Å² | CC/C=C\C/C=C\C/C=C\C/C=C\C/C=C\CCCC(=O)O[C@H](COC(=O)CCCCCCCCCCCCCC)COP(=O)([O-])OCC[N+](C)(C)C [PC 15:0@_20:5] (ion (formula + adduct): [C43H76NO8P+H] 1+) |
| – | 288.2 Å² | – | CC/C=C\C/C=C\C/C=C\C/C=C\C/C=C\C/C=C\CCC(=O)O[C@H](COC(=O)CCCCCCCCCCCCCC)COP(=O)([O-])OCC[N+](C)(C)C [PC 15:0@_22:6] (ion (formula + adduct): [C45H78NO8P+H] 1+) |
| 288 Å² | – | – | CC/C=C\C/C=C\C/C=C\C/C=C\C/C=C\C/C=C\CCC(=O)O[C@H](COC(=O)CCCCCCCCCCCCCC)COP(=O)([O-])OCC[N+](C)(C)C [PC 15:0_22:6] (ion (formula + adduct): [C45H78NO8P+H] 1+) |
| – | – | 272.8 Å² | CCCCC/C=C\CCCCCCCC(=O)OC[C@H](COP(=O)([O-])OCC[N+](C)(C)C)OC(=O)CCCCCCC/C=C\CCCCCC [PC 15:1_16:1@] (ion (formula + adduct): [C39H74NO8P+H] 1+) |
| – | – | 290.2 Å² | CCCCC/C=C\C/C=C\C/C=C\C/C=C\CCCCCC(=O)O[C@H](COC(=O)CCCCCCC/C=C\CCCCC)COP(=O)([O-])OCC[N+](C)(C)C [PC 15:1_22:4] (ion (formula + adduct): [C45H80NO8P+H] 1+) |
| – | 289.8 Å² | – | CC/C=C\C/C=C\C/C=C\C/C=C\C/C=C\C/C=C\CCC(=O)O[C@H](COC(=O)CCCCCCC/C=C\CCCCC)COP(=O)([O-])OCC[N+](C)(C)C [PC 15:1_22:6] (ion (formula + adduct): [C45H76NO8P+H] 1+) |
| 289.8 Å² | – | – | CCCCCCCC/C=C\C/C=C\C/C=C\CCCC(=O)O[C@H](COC(=O)CCCCCCCCCCCCCCC)COP(=O)([O-])OCC[N+](C)(C)C [PC 16:0@_20:3] (ion (formula + adduct): [C44H82NO8P+H] 1+) |
